Measured values: patent US20250332139A1, “PS[…] AND THEIR USE FOR TREATING […] AND NE[…] DISORDERS” (Transcend Therapeutics, Inc., priority 2021, published 2025)
pKi: −log10 of the molar value.

What was measured:
168 GPCRs [1] = target: T1, 168 GPCRs (Homo sapiens, UniProt P25021); assay: β-arrestin GPCR screen (PathHunter/GPCRmax), agonist mode; assay type: cell-based; conditions: GPCR HRH2; Agonist mode; 10 uM
T1 construct: host or cells: PathHunter cell lines
Description: (§1) For agonist determination, cells were incubated with sample to induce response. […] Vehicle concentration was 1%.

168 GPCRs [2] = target: T2, 168 GPCRs (Homo sapiens, UniProt P25024); assay: as above; assay type: cell-based; conditions: GPCR CXCR1; Agonist mode; 10 uM
T2 construct: host or cells: PathHunter cell lines
T2 sequence (P25024 whole entry): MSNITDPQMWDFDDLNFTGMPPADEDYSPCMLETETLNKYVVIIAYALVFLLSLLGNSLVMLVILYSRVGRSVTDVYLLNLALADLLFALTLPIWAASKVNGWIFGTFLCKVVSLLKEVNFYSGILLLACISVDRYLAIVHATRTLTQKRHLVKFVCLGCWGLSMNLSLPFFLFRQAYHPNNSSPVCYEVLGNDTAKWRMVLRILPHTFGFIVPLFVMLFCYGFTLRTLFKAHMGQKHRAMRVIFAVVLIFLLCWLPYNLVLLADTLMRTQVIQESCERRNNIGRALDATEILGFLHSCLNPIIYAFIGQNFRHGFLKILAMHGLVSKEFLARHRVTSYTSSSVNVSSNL
Description: as §1

168 GPCRs [3] = target: T3, 168 GPCRs (Homo sapiens, UniProt P32246); assay: as above; assay type: cell-based; conditions: CCR1; Agonist; 1 uM
T3 construct: host or cells: PathHunter cell lines
Description: as §1

168 GPCRs [4] = target: T4, 168 GPCRs (Homo sapiens, UniProt P32247); assay: as above; assay type: cell-based; conditions: BRS3; Agonist; 1 uM
T4 construct: host or cells: PathHunter cell lines
Description: as §1

168 GPCRs [5] = target: T5, 168 GPCRs (Homo sapiens, UniProt P14416); assay: as above; assay type: cell-based; conditions: GPCR DRD2L; Agonist mode; 10 uM
T5 construct: host or cells: PathHunter cell lines
T5 sequence (P14416 whole entry): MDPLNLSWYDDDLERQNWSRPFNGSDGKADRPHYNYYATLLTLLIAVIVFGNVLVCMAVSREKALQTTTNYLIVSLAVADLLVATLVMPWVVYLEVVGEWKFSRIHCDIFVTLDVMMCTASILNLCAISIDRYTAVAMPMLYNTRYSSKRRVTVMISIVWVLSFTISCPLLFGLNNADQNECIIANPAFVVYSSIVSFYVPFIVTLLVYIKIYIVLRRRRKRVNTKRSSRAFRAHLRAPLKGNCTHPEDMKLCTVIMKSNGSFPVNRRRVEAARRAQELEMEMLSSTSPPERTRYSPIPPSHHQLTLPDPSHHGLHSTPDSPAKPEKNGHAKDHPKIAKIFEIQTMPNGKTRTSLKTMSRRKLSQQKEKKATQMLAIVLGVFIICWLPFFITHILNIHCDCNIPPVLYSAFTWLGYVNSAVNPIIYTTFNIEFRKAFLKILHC
Description: as §1

168 GPCRs [6] = target: T6, 168 GPCRs (Homo sapiens, UniProt P28222); assay: as above; assay type: cell-based
T6 construct: host or cells: PathHunter cell lines
T6 sequence (P28222 whole entry): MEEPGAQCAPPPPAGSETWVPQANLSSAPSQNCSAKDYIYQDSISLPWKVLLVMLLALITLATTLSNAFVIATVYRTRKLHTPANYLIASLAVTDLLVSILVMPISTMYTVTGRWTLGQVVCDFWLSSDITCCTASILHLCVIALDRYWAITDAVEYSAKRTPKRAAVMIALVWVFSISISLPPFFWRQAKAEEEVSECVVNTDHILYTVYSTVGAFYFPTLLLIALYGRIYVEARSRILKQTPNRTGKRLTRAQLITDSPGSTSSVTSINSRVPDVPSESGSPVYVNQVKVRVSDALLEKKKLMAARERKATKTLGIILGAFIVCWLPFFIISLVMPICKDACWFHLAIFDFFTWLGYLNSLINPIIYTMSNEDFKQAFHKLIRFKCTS
Description: as §1

168 GPCRs [7] = target: T7, 168 GPCRs (Homo sapiens, UniProt P46092); assay: as above; assay type: cell-based; conditions: CCR10; Agonist; 10 uM
T7 construct: host or cells: PathHunter cell lines
T7 sequence (P46092 whole entry): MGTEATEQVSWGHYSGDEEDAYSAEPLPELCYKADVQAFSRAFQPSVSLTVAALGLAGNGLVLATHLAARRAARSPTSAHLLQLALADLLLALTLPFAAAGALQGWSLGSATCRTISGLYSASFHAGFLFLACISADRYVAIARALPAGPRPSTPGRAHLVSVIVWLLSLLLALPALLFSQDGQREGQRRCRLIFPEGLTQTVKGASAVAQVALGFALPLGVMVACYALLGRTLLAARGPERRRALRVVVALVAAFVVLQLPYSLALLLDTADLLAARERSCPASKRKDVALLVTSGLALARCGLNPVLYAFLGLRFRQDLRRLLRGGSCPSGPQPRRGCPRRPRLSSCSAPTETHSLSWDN
Description: as §1

168 GPCRs [8] = target: T8, 168 GPCRs (Homo sapiens, UniProt Q96LB1); assay: as above; assay type: cell-based; conditions: GPCR MRGPRX2; Agonist mode; 10 uM
T8 construct: host or cells: PathHunter cell lines
T8 sequence (Q96LB1 whole entry): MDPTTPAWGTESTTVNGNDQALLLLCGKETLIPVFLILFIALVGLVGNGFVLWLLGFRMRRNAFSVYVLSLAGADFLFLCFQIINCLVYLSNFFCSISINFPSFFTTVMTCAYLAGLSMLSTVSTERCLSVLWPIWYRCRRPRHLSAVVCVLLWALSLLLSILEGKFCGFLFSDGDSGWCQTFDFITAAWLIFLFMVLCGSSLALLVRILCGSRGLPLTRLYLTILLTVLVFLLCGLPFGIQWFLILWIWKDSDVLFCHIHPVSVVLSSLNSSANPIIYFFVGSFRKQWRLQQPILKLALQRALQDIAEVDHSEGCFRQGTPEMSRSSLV
Description: as §1

168 GPCRs [9] = target: T9, 168 GPCRs (Homo sapiens, UniProt P25116); assay: as above; assay type: cell-based; conditions: F2R; Agonist; 1 uM
T9 construct: host or cells: PathHunter cell lines
T9 sequence (P25116 22-425): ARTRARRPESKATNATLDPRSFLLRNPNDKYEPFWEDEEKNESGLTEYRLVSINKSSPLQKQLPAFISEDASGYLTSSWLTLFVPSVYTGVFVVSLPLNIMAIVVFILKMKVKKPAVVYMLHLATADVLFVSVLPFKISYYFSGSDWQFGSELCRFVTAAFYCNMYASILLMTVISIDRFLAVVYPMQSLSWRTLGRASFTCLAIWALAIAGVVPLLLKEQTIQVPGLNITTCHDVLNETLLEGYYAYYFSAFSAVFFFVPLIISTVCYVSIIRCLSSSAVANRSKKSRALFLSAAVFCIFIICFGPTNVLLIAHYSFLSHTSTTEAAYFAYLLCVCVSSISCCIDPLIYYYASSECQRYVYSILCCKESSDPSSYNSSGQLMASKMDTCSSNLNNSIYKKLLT
Description: as §1

168 GPCRs [10] = target: T10, 168 GPCRs (Homo sapiens, UniProt O43603); assay: as above; assay type: cell-based; conditions: GALR2; Agonist; 1 uM
T10 construct: host or cells: PathHunter cell lines
T10 sequence (O43603 whole entry): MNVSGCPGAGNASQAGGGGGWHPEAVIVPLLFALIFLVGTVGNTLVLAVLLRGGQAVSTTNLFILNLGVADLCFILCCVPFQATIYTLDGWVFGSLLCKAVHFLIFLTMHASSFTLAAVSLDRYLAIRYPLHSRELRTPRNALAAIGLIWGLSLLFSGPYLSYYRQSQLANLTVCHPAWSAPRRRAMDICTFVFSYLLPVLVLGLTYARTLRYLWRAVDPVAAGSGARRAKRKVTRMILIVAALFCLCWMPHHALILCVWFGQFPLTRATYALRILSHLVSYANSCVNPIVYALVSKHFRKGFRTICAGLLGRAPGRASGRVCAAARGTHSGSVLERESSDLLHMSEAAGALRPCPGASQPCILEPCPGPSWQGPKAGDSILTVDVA
Description: as §1

168 GPCRs [11] = target: T11, 168 GPCRs (Homo sapiens, UniProt Q96P65); assay: as above; assay type: cell-based; conditions: GPR103; Agonist; 1 uM
T11 construct: host or cells: PathHunter cell lines
T11 sequence (Q96P65 whole entry): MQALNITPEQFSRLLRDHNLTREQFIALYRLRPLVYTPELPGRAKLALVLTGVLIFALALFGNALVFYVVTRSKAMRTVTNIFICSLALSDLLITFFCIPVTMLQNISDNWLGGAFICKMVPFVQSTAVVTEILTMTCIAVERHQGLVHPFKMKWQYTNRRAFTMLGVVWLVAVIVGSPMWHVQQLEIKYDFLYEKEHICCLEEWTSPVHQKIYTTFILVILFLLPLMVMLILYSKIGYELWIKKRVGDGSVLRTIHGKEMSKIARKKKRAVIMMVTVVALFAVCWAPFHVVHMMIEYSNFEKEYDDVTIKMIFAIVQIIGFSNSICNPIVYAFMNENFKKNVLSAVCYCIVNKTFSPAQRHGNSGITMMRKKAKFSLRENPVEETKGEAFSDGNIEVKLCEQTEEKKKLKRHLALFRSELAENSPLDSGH
Description: as §1

168 GPCRs [12] = target: T12, 168 GPCRs (Homo sapiens, UniProt P23945); assay: as above; assay type: cell-based; conditions: GPCR FSHR; Agonist mode; 10 uM
T12 construct: host or cells: PathHunter cell lines
Description: as §1

168 GPCRs [13] = target: T13, 168 GPCRs (Homo sapiens, UniProt P30411); assay: as above; assay type: cell-based; conditions: BDKRB2; Agonist; 10 uM
T13 construct: host or cells: PathHunter cell lines
T13 sequence (P30411 whole entry): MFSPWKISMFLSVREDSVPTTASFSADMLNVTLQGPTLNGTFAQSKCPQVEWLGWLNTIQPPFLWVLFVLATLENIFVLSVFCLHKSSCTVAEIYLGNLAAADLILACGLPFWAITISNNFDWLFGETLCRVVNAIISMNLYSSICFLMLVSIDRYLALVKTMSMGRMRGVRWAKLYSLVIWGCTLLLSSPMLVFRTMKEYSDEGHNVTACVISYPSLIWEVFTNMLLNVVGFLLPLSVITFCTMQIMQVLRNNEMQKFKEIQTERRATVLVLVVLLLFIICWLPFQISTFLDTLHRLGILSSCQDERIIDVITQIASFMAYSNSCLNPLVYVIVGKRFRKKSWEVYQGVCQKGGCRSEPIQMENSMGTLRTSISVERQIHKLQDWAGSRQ
Description: as §1

168 GPCRs [14] = target: T14, 168 GPCRs (Homo sapiens, UniProt P32238); assay: as above; assay type: cell-based; conditions: CCKAR; Agonist; 10 uM
T14 construct: host or cells: PathHunter cell lines
T14 sequence (P32238 whole entry): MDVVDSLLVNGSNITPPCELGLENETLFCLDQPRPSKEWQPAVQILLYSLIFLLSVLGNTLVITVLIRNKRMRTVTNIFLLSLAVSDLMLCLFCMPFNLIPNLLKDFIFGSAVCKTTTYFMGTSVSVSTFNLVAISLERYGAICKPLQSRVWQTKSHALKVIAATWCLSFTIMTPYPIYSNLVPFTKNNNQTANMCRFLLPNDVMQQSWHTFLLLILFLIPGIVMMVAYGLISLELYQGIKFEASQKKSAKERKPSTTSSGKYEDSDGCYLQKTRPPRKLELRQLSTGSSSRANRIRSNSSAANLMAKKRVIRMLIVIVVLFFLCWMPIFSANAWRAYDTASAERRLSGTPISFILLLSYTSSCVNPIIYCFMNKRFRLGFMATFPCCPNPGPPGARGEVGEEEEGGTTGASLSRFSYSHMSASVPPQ
Description: as §1

168 GPCRs [15] = target: T15, 168 GPCRs (Homo sapiens, UniProt Q16602); assay: as above; assay type: cell-based; conditions: CALCRL-RAMP3; Agonist; 10 uM
T15 construct: host or cells: PathHunter cell lines
T15 sequence (Q16602 23-461): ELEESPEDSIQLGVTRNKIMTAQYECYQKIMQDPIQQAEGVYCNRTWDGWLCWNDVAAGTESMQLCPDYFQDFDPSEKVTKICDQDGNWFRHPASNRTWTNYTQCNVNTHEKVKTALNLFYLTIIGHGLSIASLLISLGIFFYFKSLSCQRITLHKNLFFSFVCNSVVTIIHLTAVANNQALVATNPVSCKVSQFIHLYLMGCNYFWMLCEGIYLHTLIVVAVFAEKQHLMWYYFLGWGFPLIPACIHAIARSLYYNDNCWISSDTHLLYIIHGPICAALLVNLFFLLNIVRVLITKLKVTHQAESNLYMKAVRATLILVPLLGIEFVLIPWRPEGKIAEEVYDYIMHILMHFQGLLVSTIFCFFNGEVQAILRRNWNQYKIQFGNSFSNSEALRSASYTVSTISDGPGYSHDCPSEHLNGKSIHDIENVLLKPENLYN
Description: as §1

C57BL/6J mice = assay: Fear extinction paradigm (PTSD mouse model); assay type: in vivo
Excerpt: Effective PTSD treatments facilitate the disassociation between a traumatic memory and the patient's fear response, making cues for the traumatic memory evoke less of a fear response. This is modeled in the mouse fear extinction paradigm (see FIG. 9A) which takes place over 3 days. On day 1 (fear conditioning), mice are trained to acquire a “traumatic memory,” namely associating the conditioned stimulus (CS, tone) to the unconditioned stimulus (US, foot shock). On day 2 (extinction training), they are trained to forget the traumatic memory association by presenting the CS 6 times (with no US) in a novel environment. On day 3 (extinction recall), the mice are “asked” if that tone (CS) still elicits a fearful response, as measured by the time spent freezing when the tone is presented. Less time freezing means better extinction recall. Drugs that improve extinction recall reduce freezing time on day 3, and, therefore, show potential as a PTSD treatment.
Methods: Cued fear conditioning was performed in C57BL/6J mice. On day 1, animals were placed in the chambers and presented with a training session (CS-US pairing). The training consisted of a 2-minute habituation followed by a 30-second, 80 dB tone; during the last 2 seconds of the tone animals received a 1 mA foot shock. This US-CS procedure occurred once for a total of one paired presentation of tone and shock. Freezing behavior (immobility) was recorded in 5-10-see intervals during the session. Percent baseline freezing behavior was determined in the 2-minute habituation period. On day 3, animals were placed in context B, in which tactile and odor cues differed from context A. Following a 2 minute acclimation period animals received 4×30 sec presentations of the CS (tone) in the absence of the US (footshock), with a 45 sec interval between presentations. Freezing was recorded in 5-10-see intervals to measure baseline freezing response to the altered context, and freezing response to each tone cue presentation. […] On day 4 (Post-Extinction Testing in Drug-Free State), animals were placed in Context B. Following a 2 min acclimation period, animals received 4×30 sec extinction tone duration presentations of the CS (tone) in the absence of the US (footshock), with a 45 sec interval between presentations. Freezing was recorded in 5-10-see intervals to measure baseline freezing response to the altered context, and freezing response to each tone cue presentation.

[16] = target: T16, serotonin transporter (SERT) (Rattus norvegicus, UniProt P31652); assay: Competitive radioligand binding, [3H]citalopram, rat brain lysates
T16 construct: from tissue; synaptosomes for uptake and release
Description: Radioligands used were: [^3H] Citalopram (PerkinElmer NET1039250UC); [^3H] Nisoxetine (PerkinElmer NET1084250UC); [^3H] WIN35428 (PerkinElmer NET1033250UC). […] Rat brains were dissected and tissue was homogenized in cold lysis buffer, centrifged at 100×g for 2 min and the supernatant was placed in a fresh tube. Supernatant was centrifuged at 13,000×g for 10 min at 4° C. to re-pellet the cell lysate. The pellet was resuspended in fresh wash buffer (50 mM Tris-HCl; 5 mM MgCl2; 5 mM EDTA) and centrifuged a third time. The pellet was then resuspended in wash buffer containing 10% sucrose as a cryoprotectant, divided into aliquots (0.3 mL) and stored at −80° C. A sample of the homogenate was analyzed for protein content using the SIGMA® BCA assay. On the day of the assay, the membrane preparation was thawed, and the pellet resuspended in final assay buffer. […] To each well was added 150 μL membranes, 50 μL of non-specific compound or buffer and 50 μL radioligand solution in buffer. […] Ki was subsequently calculated using the Cheng-Prusoff equation.

T1 sequence (P25021 whole entry): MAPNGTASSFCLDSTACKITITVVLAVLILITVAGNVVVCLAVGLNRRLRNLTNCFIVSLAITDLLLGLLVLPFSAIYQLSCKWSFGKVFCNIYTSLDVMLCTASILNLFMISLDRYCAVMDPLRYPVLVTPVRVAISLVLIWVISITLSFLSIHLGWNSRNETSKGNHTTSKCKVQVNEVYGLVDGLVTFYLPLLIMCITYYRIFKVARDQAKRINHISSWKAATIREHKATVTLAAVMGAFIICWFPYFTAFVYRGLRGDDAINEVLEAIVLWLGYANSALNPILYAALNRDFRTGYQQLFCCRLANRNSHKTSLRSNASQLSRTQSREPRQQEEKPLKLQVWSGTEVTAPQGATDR

**Q.** CNC(C)C(=O)c1ccc2c(c1)OCO2 (stereo not drawn) [methylone, 3,4-methylenedioxy-N-methylcathinone] was tested. Which activity at 10 µM (168 GPCRs [1]) did it give?
**A.** -2.8%

**Q.** What about the activity at 10 µM (168 GPCRs [2]) of the same compound?
**A.** -0.1%

**Q.** And the activity at 1 µM (168 GPCRs [3])?
**A.** ~-2%

**Q.** What about the activity at 1 µM (168 GPCRs [4]) of the same compound?
**A.** -4.5%

**Q.** And the activity at 10 µM (168 GPCRs [5])?
**A.** -0.7%

**Q.** And the activity at 10 µM (168 GPCRs [6]; GPCR HTR1B, Agonist mode, 10 uM)?
**A.** 8.7%

**Q.** What about the activity at 1 µM (168 GPCRs [6]; HTR1B, Agonist, 1 uM) of the same compound?
**A.** ~3%

**Q.** What about the activity at 10 µM (168 GPCRs [7]) of the same compound?
**A.** ~-1%

**Q.** And the activity at 10 µM (168 GPCRs [8])?
**A.** 0.7%

**Q.** What about the activity at 1 µM (168 GPCRs [9]) of the same compound?
**A.** -2.5%

**Q.** And the activity at 1 µM (168 GPCRs [10])?
**A.** -3.4%

**Q.** What about the activity at 1 µM (168 GPCRs [11]) of the same compound?
**A.** ~0%

**Q.** And the activity at 10 µM (168 GPCRs [12])?
**A.** -2.2%

**Q.** What about the activity at 10 µM (168 GPCRs [13]) of the same compound?
**A.** -2.9%

**Q.** And the activity at 10 µM (168 GPCRs [14])?
**A.** -0.3%

**Q.** What about the activity at 10 µM (168 GPCRs [15]) of the same compound?
**A.** -2.2%

**Q.** What about the “fear extinction training on day 3” value (C57BL/6J mice; Example 35, all doses (10, 20, 30 mg/kg IP)) of the same compound?
**A.** significantly improved fear extinction training

**Q.** And the “effect on fear extinction training and testing” value (C57BL/6J mice; Example 35, methylone 30 mg/kg IP 30 min before extinction training on day 3)?
**A.** rapid, robust and long-lasting beneficial effect

**Q.** And the “enhancement of fear extinction recall vs saline” value (C57BL/6J mice; methylone 30 mg/kg IP 30 min before extinction training, day 3)?
**A.** ~60%

**Q.** And the “locomotion during testing session” value (C57BL/6J mice; methylone 30 mg/kg IP, day 3)?
**A.** no differences between groups in locomotion

**Q.** And the pKi [16]?
**A.** 5.38
